Test results from ChEMBL document CHEMBL5131538 (J Med Chem, 2022).

How the values were obtained:
Glucocorticoid receptor = molecular target: T1, Glucocorticoid receptor (Rattus norvegicus, UniProt P06536); assay: Displacement of [3H]-dexamethasone from rat glucocorticoid receptor incubated overnight by liquid scintillation counting analysis
T1 sequence (P06536 whole entry): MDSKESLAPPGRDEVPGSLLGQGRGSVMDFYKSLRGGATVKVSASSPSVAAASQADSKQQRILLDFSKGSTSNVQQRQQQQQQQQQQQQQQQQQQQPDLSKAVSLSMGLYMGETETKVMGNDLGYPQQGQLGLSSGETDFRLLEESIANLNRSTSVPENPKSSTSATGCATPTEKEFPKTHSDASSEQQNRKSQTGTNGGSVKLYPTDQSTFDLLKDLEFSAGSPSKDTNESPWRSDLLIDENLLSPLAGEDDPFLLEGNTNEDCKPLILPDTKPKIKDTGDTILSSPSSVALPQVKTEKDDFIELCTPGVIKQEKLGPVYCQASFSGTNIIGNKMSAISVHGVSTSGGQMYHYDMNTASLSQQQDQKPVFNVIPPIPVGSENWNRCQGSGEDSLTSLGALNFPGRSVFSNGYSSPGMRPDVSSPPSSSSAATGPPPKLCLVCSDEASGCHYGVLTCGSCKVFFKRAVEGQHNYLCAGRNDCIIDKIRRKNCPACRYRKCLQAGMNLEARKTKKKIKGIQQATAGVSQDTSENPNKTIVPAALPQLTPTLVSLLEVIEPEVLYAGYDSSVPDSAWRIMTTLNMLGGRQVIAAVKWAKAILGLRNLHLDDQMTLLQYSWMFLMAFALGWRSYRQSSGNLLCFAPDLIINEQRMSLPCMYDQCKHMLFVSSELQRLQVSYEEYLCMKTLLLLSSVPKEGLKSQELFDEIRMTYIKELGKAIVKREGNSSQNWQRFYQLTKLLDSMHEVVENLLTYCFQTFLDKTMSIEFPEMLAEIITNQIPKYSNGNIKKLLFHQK

[1] = Half life in Sprague-Dawley rat at 3 mg/kg, po; assay type: ADME, organism-based; conditions: in vivo
CHO-K1 = assay: Antagonist activity at human mineralocorticoid receptor S810L mutant expressed in CHO-K1 cells assessed as inhibition of aldosterone-induced transcriptional activity incubated for 24 hrs in presence of 0.5 nM aldosterone by Steady-Glo reagent based reporter gene assay relative to control; assay type: cell-based; design: scale not given: the % may be the effect or the level left; conditions: filed as antagonist
[2] = Antagonist activity at human mineralocorticoid receptor S810L mutant expressed in CHO-K1 cells assessed as inhibition of aldosterone-induced transcriptional activity incubated for 24 hrs in presence of 0.5 nM aldosterone by Steady-Glo reagent based reporter gene assay; assay type: cell-based; conditions: CHO-K1, 24 h
Rattus norvegicus [3] = assay: Potency index, ratio of eplerenone ED50 to compound ED50 for antagonist activity MR in po dosed Sprague-Dawley rat assessed as reversal of aldosterone induced decrease in urinary Na+/K+ ratio; assay type: functional
Rattus norvegicus [4] = assay: Antihypertensive activity against aldosterone induced uninephrectomized Sprague-Dawley rat assessed as inhibition of area under the curve changes in systolic blood pressure at 3 mg/kg, po qd administered for 4 weeks (reference value: 294.5 +/-48.5 mmHg.day); assay type: functional, organism-based
Rattus norvegicus [5] = assay: Antihypertensive activity against aldosterone induced uninephrectomized Sprague-Dawley rat assessed as inhibition of area under the curve changes in systolic blood pressure at 10 mg/kg, po qd administered for 4 weeks (reference value: 294.5 +/-48.5 mmHg.day); assay type: functional, organism-based
Rattus norvegicus [6] = assay: (§1) Organ protective activity in aldosterone-induced uninephrectomized Sprague-Dawley rat model assessed as myocardial necrosis and interstitial cellular infiltration in heart by measuring pathological lesion score at 3 mg/kg/day by sirius red and H and E staining based histological analysis (reference value: 1.7 +/- 0.3); assay type: functional
Rattus norvegicus [7] = assay: as §1, with “degeneration of arteries” for “myocardial necrosis”, “perivascular fibrosis” for “interstitial cellular infiltration”, “1.6” for “1.7”, “0.4)” for “0.3)”; assay type: functional
Rattus norvegicus [8] = assay: Organ protective activity in aldosterone-induced uninephrectomized Sprague-Dawley rat model assessed as glomerular mesangial proliferation in kidney by measuring pathological lesion score at 3 mg/kg/day by PAS and H and E staining based histological analysis (reference value: 1.9 +/- 0.5); assay type: functional
Rattus norvegicus [9] = assay: Organ protective activity in aldosterone-induced uninephrectomized Sprague-Dawley rat model assessed as renal tubular regeneration in kidney by measuring pathological lesion score at 1 mg/kg/day by PAS and H and E staining based histological analysis (reference value: 1.7 +/- 0.5); assay type: functional
Rattus norvegicus [10] = assay: Organ protective activity in aldosterone-induced uninephrectomized Sprague-Dawley rat model assessed as renal tubular regeneration in kidney by measuring pathological lesion score at 3 mg/kg/day by PAS and H and E staining based histological analysis (reference value: 1.7 +/- 0.5); assay type: functional
Rattus norvegicus [11] = assay: Organ protective activity in aldosterone-induced uninephrectomized Sprague-Dawley rat model assessed as urinary cast in kidney by measuring pathological lesion score at 1 mg/kg/day by PAS and H and E staining based histological analysis (reference value: 1.4 +/- 0.4); assay type: functional
Rattus norvegicus [12] = assay: Organ protective activity in aldosterone-induced uninephrectomized Sprague-Dawley rat model assessed as interstitial cellular infiltration in kidney by measuring pathological lesion score at 10 mg/kg/day by PAS and H and E staining based histological analysis (reference value: 1.4 +/- 0.4); assay type: functional

Ki (Glucocorticoid receptor): 84.2 µM
half-life [1]: 6.78 h
IC50 [2]: 0.288 µM
Compound: CC1(C)Oc2cc(NS(C)(=O)=O)ccc2N(c2ccc(F)cc2)C1=O [MT-3995]
Activity (CHO-K1): 98.2%
fold change (FC) (Rattus norvegicus [3]): 10
AUC (Rattus norvegicus [4]): 550 mmHg.day
AUC (Rattus norvegicus [5]): 249 mmHg.day
Activity (Rattus norvegicus [6]): 0.9
Activity (Rattus norvegicus [7]): 0.4
Activity (Rattus norvegicus [8]): 0.3
Activity (Rattus norvegicus [9]): 1.3
Activity (Rattus norvegicus [10]): 0.3
Activity (Rattus norvegicus [11]): 0.7
Activity (Rattus norvegicus [12]): 0.1
